{"source": "patent US20220363870A1", "about": "“Stain Resistant Additive” (Arxada AG, priority 2019, published 2022)", "system": "4 algal species", "assay": "Resistance of Paint Films to Algal Defacement (Modified ASTM Method D5589)", "type": "cell-based", "set-up": "key to 4 wk Rating / 10 wk Rating / 14 wk Rating: 0 showing no growth; 4 showing the highest growth", "settings": "for Average 4 week rating: paint of Example 1, scale 0-4", "protocol": "Procedure (Modified ASTM Method D5589): • 1. Sample substrates are coated with the corresponding paint samples containing the targeted amount of additive and antimicrobial. • 2. Depending upon the test conditions, samples are subjected to UV, leaching conditions, standard conditions, or a combination thereof. Leaching was performed for up to 7 days and with or without up to 600 hr of QUV in a weathering chamber. • 3. 4 algal species are used and inoculated every 2 weeks, including up to 18 weeks. Fresh plates were replaced at weeks 4, 10, 14, and 18. • 4. Ratings are scored on a range of 0-4, with 0 showing no growth and 4 showing the highest growth.", "note": "Where “and” joins values, the source holds several entries; their conditions need not be identical. Equal values may be shown once."}
{"molecule": "CCCCCCCCn1sccc1=O", "note": "[N-octylisothiazolinone]", "values": [{"measurement": "Average 4 week rating", "setting": "Biocide 350 ppm + Additive 1,000 ppm", "result": 3.7}, {"measurement": "Average 4 week rating", "setting": "Biocide 350 ppm + Additive 3,000 ppm", "result": 1.7}, {"measurement": "Average 4 week rating", "setting": "Biocide 350 ppm, no additive", "result": 2.7}, {"measurement": "Average 4 week rating", "setting": "Biocide 700 ppm + Additive 1,000 ppm", "result": 0.7}, {"measurement": "Average 4 week rating", "setting": "Biocide 700 ppm + Additive 3,000 ppm", "result": 0.0}, {"measurement": "Average 4 week rating", "setting": "Biocide 700 ppm, no additive", "result": 1.0}, {"measurement": "Average 4 week rating", "setting": "Biocide 1,050 ppm + Additive 1,000 ppm", "result": 0.0}, {"measurement": "Average 4 week rating", "setting": "Biocide 1,050 ppm + Additive 3,000 ppm", "result": 0.0}, {"measurement": "Average 4 week rating", "setting": "Biocide 1,050 ppm, no additive", "result": 1.3}]}
{"molecule": "Zinc pyrithione", "values": [{"measurement": "4 wk Rating", "setting": "Conc. 0.7% in paint of Example 1, algal growth rating 0-4, 4 wk", "result": 0}, {"measurement": "10 wk Rating", "setting": "Conc. 0.7% in paint of Example 1, algal growth rating 0-4, 10 wk", "result": 0}, {"measurement": "14 wk Rating", "setting": "Conc. 0.7% in paint of Example 1, algal growth rating 0-4, 14 wk", "result": 0}, {"measurement": "4 wk ZOI", "setting": "Conc. 0.7% in paint of Example 1, zone of inhibition, 4 wk", "result": 15}, {"measurement": "18 wk ZOI", "setting": "Conc. 0.7% in paint of Example 1, zone of inhibition, 18 wk", "result": 0}]}
{"molecule": "zinc di(ethyl 4,4,4-trifluoroacetoacetate) dihydrate [Additive]", "values": [{"measurement": "Average 4 week rating", "setting": "Additive 1,000 ppm, no biocide", "result": 3.7}, {"measurement": "Average 4 week rating", "setting": "Additive 3,000 ppm, no biocide", "result": 2.0}, {"measurement": "18 wk Rating", "setting": "Conc. 0.3% in paint of Example 1, algal growth rating 0-4, 18 wk, dihydrate", "result": "3 and 2"}, {"measurement": "4 wk ZOI", "setting": "Conc. 0.3% in paint of Example 1, zone of inhibition, 4 wk", "result": 0}, {"measurement": "10 wk ZOI", "setting": "Conc. 0.3% in paint of Example 1, zone of inhibition, 10 wk", "result": 0}, {"measurement": "14 wk ZOI", "setting": "Conc. 0.3% in paint of Example 1, zone of inhibition, 14 wk", "result": 0}, {"measurement": "18 wk ZOI", "setting": "Conc. 0.3% in paint of Example 1, zone of inhibition, 18 wk", "result": 0}]}
